Experimental data from ChEMBL document CHEMBL1141662, “Synthesis and antiproliferative activity of aryl- and heteroaryl-hydrazones derived from xanthone carbaldehydes” (Eur J Med Chem, 2008).

Key:
[1] = Antiproliferative activity against human KB 3.1 cells assessed as cell viability at 1 uM after 24 hrs by MTT assay; assay type: functional; conditions: KB 3-1, 24 h, read-out: Activity
[2] = Antiproliferative activity against human KB 3.1 cells assessed as cell viability at 10 uM after 24 hrs by MTT assay; assay type: functional; conditions: KB 3-1, 24 h, read-out: Activity
[3] = tested on: MCF7; experiment: Antiproliferative activity against human MCF7 cells assessed as cell viability at 10 uM after 24 hrs by MTT assay; assay type: functional; conditions: MCF7, 24 h, read-out: Activity
[4] = tested on: MCF7; experiment: Antiproliferative activity against human MCF7 cells assessed as cell viability at 1 uM after 24 hrs by MTT assay; assay type: functional; conditions: MCF7, 24 h, read-out: Activity
[5] = tested on: MCF7; experiment: Antiproliferative activity against human MCF7 cells after 24 hrs by MTT assay; assay type: functional, cell-based; conditions: MCF7, 24 h
[6] = tested on: MCF7; experiment: Ratio of IC50 for human […] cells after 24 hrs to IC50 for human MCF7 cells after 72 hrs by MTT assay; assay type: functional
[7] = Antiproliferative activity against human KB 3.1 cells after 24 hrs by MTT assay; assay type: functional, cell-based; conditions: KB 3-1, 24 h
[8] = tested on: MCF7; experiment: Antiproliferative activity against human MCF7 cells after 72 hrs by MTT assay; assay type: functional, cell-based; conditions: MCF7, 72 h
[9] = Antiproliferative activity against human KB 3.1 cells after 72 hrs by MTT assay; assay type: functional, cell-based; conditions: KB 3-1, 72 h
[10] = Ratio of IC50 for human KB 3.1 cells after 24 hrs to IC50 for human KB 3.1 cells after 72 hrs by MTT assay; assay type: functional

SMILES: CC(=O)Oc1cc(OC(C)=O)c2c(=O)c3ccc(/C=N/Nc4ccccn4)cc3oc2c1
- viability at 1 µM [1]: 100%
- viability at 10 µM [2]: 87%
- viability at 10 µM [3]: 100%
- viability at 1 µM [4]: 100%

SMILES: CC(=O)Oc1cc(OC(C)=O)c2c(=O)c3cccc(/C=N\Nc4ccccn4)c3oc2c1
- viability at 1 µM [1]: 95%
- viability at 10 µM [2]: 90%
- viability at 10 µM [3]: 79%
- viability at 1 µM [4]: 80%

SMILES: CC(=O)Oc1cc(OC(C)=O)c2c(=O)c3cc(/C=N/NC4=NCCN4)ccc3oc2c1
- viability at 1 µM [1]: 100%
- viability at 10 µM [2]: 14%
- IC50 [5]: 9.3 µM
- Ratio IC50 [6]: 1.3
- IC50 [7]: 11.3 µM
- IC50 [8]: 7 µM
- IC50 [9]: 4.7 µM
- Ratio IC50 [10]: 2.4
- viability at 10 µM [3]: 14%
- viability at 1 µM [4]: 64%

SMILES: CC(=O)Oc1cc(OC(C)=O)c2c(=O)c3ccc(/C=N/Nc4ccccc4)cc3oc2c1
- viability at 1 µM [1]: 100%
- viability at 10 µM [2]: 100%
- viability at 10 µM [3]: 100%
- viability at 1 µM [4]: 100%

SMILES: O=c1c2ccc(/C=N/Nc3ccccn3)cc2oc2cc(O)cc(O)c12
- viability at 1 µM [1]: 77%
- viability at 10 µM [2]: 2%
- viability at 10 µM [3]: 3%
- viability at 1 µM [4]: 100%

SMILES: O=c1c2ccc(/C=N/NC3=NCCN3)cc2oc2cc(O)cc(O)c12
- viability at 1 µM [1]: 93%
- viability at 10 µM [2]: 80%
- viability at 10 µM [3]: 70%
- viability at 1 µM [4]: 73%

SMILES: O=c1c2cccc(/C=N\NC3=NCCN3)c2oc2cc(O)cc(O)c12
- viability at 1 µM [1]: 90%
- viability at 10 µM [2]: 75%
- viability at 10 µM [3]: 82%
- viability at 1 µM [4]: 97%

SMILES: O=c1c2cccc(/C=N\Nc3ccccn3)c2oc2cc(O)cc(O)c12
- viability at 1 µM [1]: 96%
- viability at 10 µM [2]: 3%
- viability at 10 µM [3]: 12%
- viability at 1 µM [4]: 86%

SMILES: O=c1c2cc(/C=N/NC3=NCCN3)ccc2oc2cc(O)cc(O)c12
- viability at 1 µM [1]: 99%
- viability at 10 µM [2]: 92%
- viability at 10 µM [3]: 64%
- viability at 1 µM [4]: 90%

SMILES: CC(=O)Oc1cc(OC(C)=O)c2c(=O)c3cc(/C=N/Nc4ccccc4)ccc3oc2c1
- viability at 1 µM [1]: 100%
- viability at 10 µM [2]: 100%
- viability at 10 µM [3]: 100%
- viability at 1 µM [4]: 100%

SMILES: O=c1c2cc(/C=N/Nc3ccccc3)ccc2oc2cc(O)cc(O)c12
- viability at 1 µM [1]: 100%
- viability at 10 µM [2]: 82%
- viability at 10 µM [3]: 72%
- viability at 1 µM [4]: 100%

SMILES: O=c1c2ccc(/C=N/Nc3ccccc3)cc2oc2cc(O)cc(O)c12
- viability at 1 µM [1]: 100%
- viability at 10 µM [2]: 61%
- viability at 10 µM [3]: 100%
- viability at 1 µM [4]: 100%

SMILES: O=c1c2cccc(/C=N\Nc3ccccc3)c2oc2cc(O)cc(O)c12
- viability at 1 µM [1]: 100%
- viability at 10 µM [2]: 96%
- viability at 10 µM [3]: 100%
- viability at 1 µM [4]: 100%

SMILES: CC(=O)Oc1cc(OC(C)=O)c2c(=O)c3ccc(/C=N/NC4=NCCN4)cc3oc2c1
- viability at 1 µM [1]: 85%
- viability at 10 µM [2]: 13%
- IC50 [5]: 1.9 µM
- Ratio IC50 [6]: 0.8
- IC50 [7]: 1.6 µM
- IC50 [8]: 2.4 µM
- IC50 [9]: 1.8 µM
- Ratio IC50 [10]: 0.9
- viability at 10 µM [3]: 13%
- viability at 1 µM [4]: 35%

SMILES: O=c1c2cc(/C=N/Nc3ccccn3)ccc2oc2cc(O)cc(O)c12
- viability at 1 µM [1]: 95%
- viability at 10 µM [2]: 90%
- viability at 10 µM [3]: 41%
- viability at 1 µM [4]: 58%

SMILES: CC(=O)Oc1cc(OC(C)=O)c2c(=O)c3cccc(/C=N\Nc4ccccc4)c3oc2c1
- viability at 1 µM [1]: 100%
- viability at 10 µM [2]: 82%
- viability at 10 µM [3]: 100%
- viability at 1 µM [4]: 100%

SMILES: CC(=O)Oc1cc(OC(C)=O)c2c(=O)c3cc(/C=N/Nc4ccccn4)ccc3oc2c1
- viability at 1 µM [1]: 98%
- viability at 10 µM [2]: 60%
- viability at 10 µM [3]: 70%
- viability at 1 µM [4]: 85%

SMILES: CC(=O)Oc1cc(OC(C)=O)c2c(=O)c3cccc(/C=N\NC4=NCCN4)c3oc2c1
- viability at 1 µM [1]: 95%
- viability at 10 µM [2]: 66%
- IC50 [5]: 5.1 µM
- Ratio IC50 [6]: 0.9
- IC50 [7]: 6.8 µM
- IC50 [8]: 5.6 µM
- IC50 [9]: 6.5 µM
- Ratio IC50 [10]: 1.05
- viability at 10 µM [3]: 48%
- viability at 1 µM [4]: 80%

SMILES: COc1cccc2c1C(=O)c1c(O)c3c(c(O)c1C2=O)C[C@@](O)(C(=O)CO)C[C@@H]3O[C@H]1C[C@H](N)[C@H](O)[C@H](C)O1 [DOXORUBICIN]
- IC50 [7]: 0.01 µM
- IC50 [9]: 0.0004 µM
